Patent US12122760B2, “Compound, composition, and use thereof in preparation of drug” (CHANGSHA ZEDA MEDICAL TECH. CO., LTD, priority 2019, dated 2024)

Experiments:
AR-LBD (GST) = target: T1, AR-LBD (GST) (Rattus norvegicus, UniProt P15207); assay: PolarScreen Androgen Receptor (AR) Competitor Assay, binding experiment of the antagonist and AR; details: fluorescence polarization, incubated 6 hours, FIG. 1; read-out: IC50 of the drug and AR-LBD binding
T1 construct: purchased Life technologies company, USA
T1 sequence (P15207 651-882 limits assumed): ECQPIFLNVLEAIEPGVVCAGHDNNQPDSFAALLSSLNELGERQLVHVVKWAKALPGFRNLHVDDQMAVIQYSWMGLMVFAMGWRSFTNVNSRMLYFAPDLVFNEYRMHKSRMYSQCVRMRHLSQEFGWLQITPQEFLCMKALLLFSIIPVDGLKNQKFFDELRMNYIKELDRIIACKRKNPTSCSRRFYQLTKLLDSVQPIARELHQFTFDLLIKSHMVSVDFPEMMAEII
From the text: PolarScreen™ Androgen Receptor (AR) Competitor Assay, Green kit (Life technologies company, USA) is used to test the affinity of the antagonist to AR-LBD (GST). The mechanism of the experiment is that the AR-LBD is combined with a small molecule fluormone tracer (Fluormone Tracer), and an antagonist added can competitively bind with AR-LBD so as to replace the fluormone tracer, and the replaced fluormone tracer […], and the value of the fluorescence polarization is inversely proportional to the number of the replaced tracers.
A specific process is as follows: the drug is dissolved into 500 uM by using DMSO, and then diluted to 244 nM by double dilution concentration gradients in a 96-well plate. A 10 uL of a reaction system AR-LBD+Tracer is configured in a 384-well plate and 10 uL of the drug solution is added. The positive control is 10 uL of AR-LBD+Tracer with 10 uL of DHT added. The 384-well plate is wrapped by tin foil and incubated for 6 hours in the dark. The fluorescence polarization value is read on a multi-function microplate reader. Graphpad Prism software is used to draw a drug concentration as an abscissa, and the fluorescence polarization value is used as an ordinate for drawing a curve. […] Herein, the DHT, MDV3100, and ARN509 are positive controls.

androgen receptor (AR) = target: T2, androgen receptor (AR) (Homo sapiens, UniProt P10275); assay: Luciferase reporter gene experiment (MMTV-LUC + pSV-AR in 293T cells); format: cell-based; details: 10 nM DHT, FIG. 2
T2 construct: expressed in transfected cells; host or cells: 293T cells
T2 sequence (P10275 1-920): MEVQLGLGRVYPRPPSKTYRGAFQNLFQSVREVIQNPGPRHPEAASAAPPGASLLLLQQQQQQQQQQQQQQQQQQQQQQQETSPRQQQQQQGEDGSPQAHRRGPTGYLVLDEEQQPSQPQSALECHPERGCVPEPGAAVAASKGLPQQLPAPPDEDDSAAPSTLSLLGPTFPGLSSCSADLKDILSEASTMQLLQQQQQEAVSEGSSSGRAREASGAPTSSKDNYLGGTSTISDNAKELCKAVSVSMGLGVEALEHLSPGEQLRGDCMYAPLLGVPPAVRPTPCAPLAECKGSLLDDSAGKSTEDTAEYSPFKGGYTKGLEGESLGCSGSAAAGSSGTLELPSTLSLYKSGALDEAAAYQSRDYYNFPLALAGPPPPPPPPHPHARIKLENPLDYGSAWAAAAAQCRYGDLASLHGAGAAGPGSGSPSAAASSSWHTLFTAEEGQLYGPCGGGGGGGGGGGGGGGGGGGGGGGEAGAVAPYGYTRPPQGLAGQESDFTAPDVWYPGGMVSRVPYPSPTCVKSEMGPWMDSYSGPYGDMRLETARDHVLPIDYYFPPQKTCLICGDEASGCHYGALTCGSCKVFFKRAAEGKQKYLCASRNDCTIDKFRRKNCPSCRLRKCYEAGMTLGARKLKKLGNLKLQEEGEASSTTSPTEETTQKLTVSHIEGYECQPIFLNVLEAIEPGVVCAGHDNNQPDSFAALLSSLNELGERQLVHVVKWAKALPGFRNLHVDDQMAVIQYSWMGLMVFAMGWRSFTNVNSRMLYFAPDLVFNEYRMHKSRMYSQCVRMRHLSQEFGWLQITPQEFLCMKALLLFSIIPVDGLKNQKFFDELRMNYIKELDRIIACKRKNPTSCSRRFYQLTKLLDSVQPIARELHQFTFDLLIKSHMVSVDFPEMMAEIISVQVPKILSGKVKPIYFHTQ
Description: 293T cells are cultured in a 96-well plate. AR plasmids and luciferase genes with AR target promoters are co-transfected in the 293T cells. AR activates the target promoters to express luciferase, and the expression level of the luciferase is directly proportional to AR activation. Adding DHT to the cells can activate AR and express the luciferase, thus enhancing fluorescence signal detection. By detecting the fluorescent signal, it can be examined whether an added drug has AR antagonist activity.
The luciferase reporter gene plasmid MMTV-LUC containing the androgen receptor (AR) target promoters and the plasmid pSV-AR expressing the androgen receptor (AR) are constructed. The 293T cells are inoculated in a 96-well plate, wherein each well containing 1×10^4 cells. The cells are incubated overnight to stick to the wall. On the second day, Lipofectamine® 3000 (Life technologies, USA) is used to transfect the plasmid into the cells. Each well is added with 180 ng of MMTV-LUC plasmid and 20 ng of pSV-AR plasmid. On the third day, each well is added with 10 nM of the DHT and the drugs of different concentrations of 1 nM, 10 nM, 100 nM, 1 uM, 10 uM, 25 uM, 50 uM respectively. The control is 10 nM of the DHT. On the fifth day, a luciferase reporter gene detection kit (Biyuntian company, China) is used to process the cells. 100 uL of cell lysate is added to the 96-well plate, and lyse for 20 min. Then centrifuging is performed at 4 degrees and 10000 g for 3 min. 50 uL of supernatant is taken and 100 uL of a luciferase detection reagent is added. After mixing, chemiluminescence is immediately detected on the multi-functional microplate reader. Graphpad Prism software is used to draw a curve by using the drug concentration as an abscissa and using drug fluorescence value/positive control fluorescence value as an ordinate. Herein MDV3100 is the positive control.

With N#Cc1ccc(N2C(=O)C3(CCC3)N(c3ccc(C(=O)NO)c(F)c3)C2=S)cc1C(F)(F)F [Zeta 55, 4-(7-(4-cyano-3-(trifluoromethyl)phenyl)-8-oxo-6-thio-5,7-diazaspiro[3.4]octane-5-yl)-2-fluoro-N-hydroxybenzamide] the IC50 (AR-LBD (GST)) was 29.8 µM and the “antagonist effect on the AR, antagonistic ability from high to low” value (androgen receptor (AR)) was “Zeta32>Zeta55>Zeta34>Zeta57>Zeta33”.
